Values belong to the compound of their own block, whether it stands above or below them.
What was measured:
[1] = Hydrophobic drug loading capacity of NPs (UV-vis/HPLC); format: physicochemical
Text: In this drug loading strategy, DGKi or other hydrophobic drugs in organic solvent are mixed with an aqueous suspension of amph-NPs and dialyzed to remove the organic solvent, leading to partitioning of the drug into the hydrophobic pockets of the amph-NP ligand shell. This approach allowed one to load drugs that are nearly insoluble in aqueous solutions to high degrees of “solubility” via incorporation into MUS or MUSOT amph-NPs.
More detailed procedures to prepare small molecules-loaded NPs are as follows: Hydrophobic small molecules are dissolved in pure ethanol, and mixed with NPs in a dialysis tube against water. Dialysis tubes containing 100-500 Da molecular weight cut off allows ethanol to permeate while retains most small molecules. […] Loaded drugs were then quantified via absorbance using UV-vis spectrometer.
To test immunomodulatory drug loading capacity, small-molecule drug N-acetylcysteine (NAC) was loaded directly onto the gold core via sulfur-gold covalent bonding. […] The drug loading efficiency was determined by HPLC and UV-vis.
In this drug loading strategy, DGKi or other hydrophobic drugs in organic solvent are mixed with an aqueous suspension of amph-NPs and dialyzed to remove the organic solvent, leading to partitioning of the drug into the hydrophobic pockets of the amph-NP ligand shell. […] Loaded drugs were then quantified via absorbance using UV-vis spectrometer. […]

[2] = test system: DCs, B and T cells; test: Immune cell activation in lymph nodes after s.c. R848; format: in vivo, C57BL/6 mice; conditions: doses above 5 μg, 24 h post injection
Experimental: From there they disperse into the body and drain into the lymph system where they encounter cells sensitive to their adjuvants. Serum inflammatory cytokines were tested one hour post injection given the short half-life of small molecules.
R848 (Resiquimod, a TLR7/8 agonist) was loaded into amph-NPs, and administered subcutaneously at the tail base. Serum was collected 1 hour post injection to evaluate systemic toxicity. Cells in LNs were isolated 24 h post injection to analyze immune cell activation.
Small molecules like R848 diffuse quickly into blood vessels, which may lead to severe systemic adverse effect. An experiment was designed to determine if by using lymph node targeted NPs, systemic adverse effects could be reduced while activation of local lymphocytes remains effective. Systemic toxicity was compared by measuring TNF, IL-6, IL-10, and MCP-1, and measuring activation of lymphatic cells.

[3] = test system: Cytotoxic T cells; test: T cell proliferation under PD-L1 induced suppression; format: cell-based; conditions: αCD3/CD28 activated
Experimental: Cytotoxic T cells were incubated with αCD3/CD28 activating antibody and either control IgG, or with PD-L1 IgG (PD-1 agonist antibody) to induce T cell suppression, and further treated with vehicle, DGK inhibitor alone, DGK inhibitor loaded amph-NP, or amph-NP alone.

[4] = target: PD-1; test: cell-based or functional assay

loading in amph-NPs [1]: loads well
Compound: CN[C@@H](C)C(=O)N[C@H](C(=O)N1CCC[C@H]1c1nc(C(=O)c2ccc(F)cc2)cs1)C1CCCCC1 [LCL161]

Compound: CCOCc1nc2c(N)nc3ccccc3c2n1CC(C)(C)O [R848, Resiquimod]
activation of immune cells in LNs [2]: activated DCs, B and T cells

Compound: Cc1nc2sccn2c(=O)c1CCN1CCC(=C(c2ccccc2)c2ccc(F)cc2)CC1 [diacyl kinase inhibitor]
% proliferating cells ([3]; PD-L1 IgG (suppressed)): 2.71% | % proliferating cells ([3]; control IgG): 89.9%

Compound: PD-L1 IgG (PD-1 agonist antibody)
% proliferating cells (cytotoxic T cells with anti-CD3/CD28, vehicle / no treatment; control IgG gave 71.3%) [4]: 0.98%

Source: US20180311174A1, “NANOPARTICLES COMPRISING A METAL CORE SURROUNDED BY A MONOLAYER FOR LYMPH NODE TARGETING” (Massachusetts Institute of Technology, priority 2015, published 2018)
